# How the values were obtained:
# caspase-1 = target: T1, caspase-1 (Homo sapiens, UniProt P29466, D381E); test: Caspase-1 progress curve assay; type: biochemical; conditions: D381E variant, substrate Ac-YVAD-AMC, 30° C.
# T1 construct: His tag (N); made in house; host or cells: E. coli
# T1 sequence (P29466 120-297 limits assumed): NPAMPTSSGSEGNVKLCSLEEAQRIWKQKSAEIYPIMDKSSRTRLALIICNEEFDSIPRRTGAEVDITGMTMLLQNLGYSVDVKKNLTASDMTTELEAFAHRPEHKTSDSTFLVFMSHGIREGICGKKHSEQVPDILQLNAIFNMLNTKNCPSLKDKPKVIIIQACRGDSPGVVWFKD
# T1 sequence (P29466 317-404 D381E limits assumed): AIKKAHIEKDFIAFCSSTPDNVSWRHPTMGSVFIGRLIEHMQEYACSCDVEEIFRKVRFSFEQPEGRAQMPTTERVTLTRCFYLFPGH
# Text: Caspase-1. The preparation of the autolytically stable caspase-1 variant used in these studies has been described previously. Briefly, the variant contains a mutation (D381E) which renders it resistant to autolytic inactivation, but has no detectable affect on enzyme activity as compared to the naturally occurring enzyme. The enzyme variant was expressed in E. coli, purified first by immobilized metal chromatography via the N-terminal N-His tag, treated with excess oxidized glutathione to stabilize the reactive thiolate, and then re-purified by size-exclusion chromatography.
# Inhibition data was measured using the progress curve assay method. Serial dilutions of each compound were prepared using an initial 8-fold dilution of a DMSO stock into HGE (100 mM HEPES,20% glycerol v/v, 0.5 mM EDTA), followed by seven serial two-fold dilutions into HGE and 12.5% DMSO, thus maintaining constant DMSO through the dilution series. Ten μL of diluted stocks or of vehicle (HGE and 12.5% DMSO) were placed in triplicate onto a 96-well microtiter plate, allowing several compounds to be tested on each plate. The plate was covered to minimize evaporation, and the plate was pre-warmed to 30° C. for 20 minutes. Enzyme was diluted into 10.0 mL of assay buffer (HGE, 5 mM DTT, plus 15 μM Ac-YVAD-AMC, 2 nM approximate final enzyme concentration), and this activated reaction mixture was added to the plate at 90 μL/well. Progress of substrate hydrolysis was monitored for 900 s in a LabSystems (Needham, Mass.) Fluoroskan Ascent fluorescent plate-reader using 385 and 460 nm excitation and emission filters, respectively, and a photomultiplier gain setting of 10. Triplicate curves were averaged and fit by nonlinear regression to the equation for irreversible inactivation shown below.
# [formula] where F0 was routinely fixed to zero, since fluorescence values were always adjusted to an origin of 0. The second order rate constant kon (M^−1s^−1) was obtained from the slopes by linear regression, and errors represent the standard deviation of the regression slope.
# caspase-3 = target: T2, caspase-3 (Homo sapiens, UniProt P42574); test: Caspase-3 progress curve assay; type: biochemical; conditions: substrate Z-DEVD-AFC; NI = no inhibition
# T2 construct: made in house; host or cells: E. coli
# T2 sequence (P42574 29-175 limits assumed): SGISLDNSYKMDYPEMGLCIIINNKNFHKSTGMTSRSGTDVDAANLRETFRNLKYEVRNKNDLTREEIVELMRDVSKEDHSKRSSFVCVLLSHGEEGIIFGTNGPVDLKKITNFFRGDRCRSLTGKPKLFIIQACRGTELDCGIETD
# T2 sequence (P42574 176-277 limits assumed): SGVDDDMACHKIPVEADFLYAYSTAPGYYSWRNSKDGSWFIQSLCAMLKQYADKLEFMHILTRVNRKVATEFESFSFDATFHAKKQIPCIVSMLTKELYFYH
# Procedure: Caspase-3, -6, and -8. Caspase-3, -6 and -8 were expressed in E. coli and purified according to methods previously described by Stennicke and Salvesen. Assays using the fluorogenic substrate Z-DEVD-AFC (λex=400 nm, λem=505 nm) were carried out on a Molecular Devices fMax fluorescence microplate reader. Inhibition rates and equilibria were determined by the progress curve method. The standard 100 μL reaction was started by adding enzyme to a mixture of substrate (final concentration of Z-DEVD-AFC 100 μM) and various amounts of inhibitor in buffer (50 mM Hepes, 100 mM NaCl, 0.1% (w/v) CHAPS, sucrose 10% (w/v), and 10 mM DTT, at pH 7.4). The caspases were pre-activated for 10 min at 37° C. in the presence of 10 mM DTT.
smiles,measurement,setting,value
"CC(C)[C@H](NC(=O)CCc1ccccc1)C(=O)N[C@@H](C)C(=O)NN(CC(=O)O)C(=O)[C@H]1O[C@@H]1C(=O)NCc1ccccc1 [23g (S,S), (2S,3S)-2-(2-Benzylcarbamoyl)-3-(N^2-(3-phenylpropanoylvalylalanyl)-N^1-carboxymethylhydrazinocarbonyl)oxirane]",k2 caspase-1,caspase-1,65900 ± 9153 M⁻¹ s⁻¹
same,k2 caspase-3,caspase-3,1610 ± 5 M⁻¹ s⁻¹
"CC(C)[C@H](NC(=O)CCc1ccccc1)C(=O)N[C@@H](C)C(=O)NN(CC(=O)O)C(=O)[C@@H]1O[C@H]1C(=O)NC(Cc1ccccc1)C(N)=O (stereo partly drawn) [23l (R,R), (2R,3R)-2-(1-Amido-phenethylcarbamoyl)-3-(N^2-(3-phenylpropanoylvalylalanyl)-N^1-carboxymethylhydrazinocarbonyl)oxirane]",k2 caspase-1,caspase-1,330 M⁻¹ s⁻¹
"CCOC(=O)[C@H]1O[C@@H]1C(=O)N(CC(=O)O)NC(=O)[C@@H](NC(=O)[C@H](CCC(=O)O)NC(=O)OCc1ccccc1)C(C)C [24c, (2S,3S)-3-(N^2-(N-Benzyloxycarbonylglutamylvalyl)-N^1-carboxymethylhydrazinocarbonyl)oxirane-2-carboxylic Acid Ethyl Ester]",k2 caspase-1,caspase-1,58500 M⁻¹ s⁻¹
same,k2 caspase-3,caspase-3,50500 ± 2075 M⁻¹ s⁻¹
"CC(C)[C@H](NC(=O)[C@H](CCC(=O)O)NC(=O)[C@H](CC(=O)O)NC(=O)OCc1ccccc1)C(=O)NN(CC(=O)O)C(=O)[C@H]1O[C@@H]1C(=O)NCc1ccccc1 [25g, (2S,3S)-2-(2-Benzylcarbamoyl)-3-(N^2-(N-benzyloxycarbonylaspartylglutamylvalyl)-N^1-carboxymethylhydrazinocarbonyl)oxirane]",k2 caspase-1,caspase-1,25420 ± 4013 M⁻¹ s⁻¹
same,k2 caspase-3,caspase-3,1097820 ± 94860 M⁻¹ s⁻¹
"CC(C)[C@H](NC(=O)[C@H](CCC(=O)O)NC(=O)[C@H](CC(=O)O)NC(=O)OCc1ccccc1)C(=O)NN(CC(=O)O)C(=O)[C@H]1O[C@@H]1C(=O)OCc1ccccc1 [25d, (2S,3S)-3-(N^2-(N-Benzyloxycarbonylaspartylglutamylvalyl)-N^1-carboxymethylhydrazinocarbonyl)oxirane-2-carboxylic Acid Benzyl Ester]",k2 caspase-1,caspase-1,54690 ± 15913 M⁻¹ s⁻¹
same,k2 caspase-3,caspase-3,1915200 ± 209200 M⁻¹ s⁻¹
"CC(C)[C@H](NC(=O)CCc1ccccc1)C(=O)N[C@@H](C)C(=O)NN(CC(=O)O)C(=O)[C@H]1O[C@@H]1C(=O)NC(Cc1ccc(O)cc1)C(N)=O (stereo partly drawn) [23m, (2S,3S)-2-(2-Amido-phenyl(4-hydroxy)ethylcarbamoyl)-3-(N^2-(3-phenylpropanoylvalylalanyl)-N^1-carboxymethylhydrazinocarbonyl)oxirane]",k2 caspase-1,caspase-1,3245 ± 2330 M⁻¹ s⁻¹
same,k2 caspase-3,caspase-3,87 ± 4 M⁻¹ s⁻¹
"CCOC(=O)[C@@H]1O[C@H]1C(=O)N(CC(=O)O)NC(=O)[C@@H](NC(=O)[C@H](CCC(=O)O)NC(=O)[C@H](CC(=O)O)NC(=O)OCc1ccccc1)C(C)C [25c (R,R), (2R,3R)-3-(N^2-(N-Benzyloxycarbonylaspartylglutamylvalyl)-N^1-carboxymethylhydrazinocarbonyl)oxirane-2-carboxylic Acid Ethyl Ester]",k2 caspase-1,caspase-1,4320 ± 830 M⁻¹ s⁻¹
same,k2 caspase-3,caspase-3,464420 ± 186300 M⁻¹ s⁻¹
"CC(C)[C@H](NC(=O)CCc1ccccc1)C(=O)N[C@@H](C)C(=O)NN(CC(=O)O)C(=O)[C@@H]1O[C@H]1C(=O)OCc1ccccc1 [23d (R,R), (2R,3R)-3-(N^2-(3-Phenylpropanoylvalylalanyl)-N^1-carboxymethylhydrazinocarbonyl)oxirane-2-carboxylic Acid Benzyl Ester]",k2 caspase-1,caspase-1,1860 ± 302 M⁻¹ s⁻¹
"CC(C)[C@H](NC(=O)CCc1ccccc1)C(=O)N[C@@H](C)C(=O)NN(CC(=O)O)C(=O)[C@H]1O[C@@H]1C(=O)NC(Cc1ccccc1)C(N)=O (stereo partly drawn) [23l (S,S), (2S,3S)-2-(1-Amido-phenethylcarbamoyl)-3-(N^2-(3-phenylpropanoylvalylalanyl)-N^1-carboxymethylhydrazinocarbonyl)oxirane]",k2 caspase-1,caspase-1,32740 ± 9937 M⁻¹ s⁻¹
same,k2 caspase-3,caspase-3,625 ± 160 M⁻¹ s⁻¹
"CCOC(=O)[C@@H]1O[C@H]1C(=O)N(CC(=O)O)NC(=O)[C@@H](NC(=O)[C@H](CCC(=O)O)NC(=O)[C@@H](NC(=O)OCc1ccccc1)[C@@H](C)CC)[C@@H](C)O [27c (R,R), (2R,3R)-3-(N^2-(N-Benzyloxycarbonylisoleucylglutamylthreonyl)-N^1-carboxymethylhydrazinocarbonyl)oxirane-2-carboxylic Acid Ethyl Ester]",k2 caspase-1,caspase-1,13260 ± 3684 M⁻¹ s⁻¹
same,k2 caspase-3,caspase-3,2630 ± 365 M⁻¹ s⁻¹
"CCOC(=O)[C@H]1O[C@@H]1C(=O)N(CC(=O)O)NC(=O)[C@H](C)NC(=O)[C@@H](NC(=O)CCc1ccccc1)C(C)C [23c (S,S), (2S,3S)-3-(N^2-(3-Phenylpropanoylvalylalanyl)-N^1-carboxymethylhydrazinocarbonyl)oxirane-2-carboxylic Acid Ethyl Ester]",k2 caspase-1,caspase-1,32200 ± 14560 M⁻¹ s⁻¹
same,k2 caspase-3,caspase-3,1040 ± 80 M⁻¹ s⁻¹
"CC(C)[C@H](NC(=O)CCc1ccccc1)C(=O)N[C@@H](C)C(=O)NN(CC(=O)O)C(=O)[C@@H]1O[C@H]1CCc1ccccc1 (relative stereo) [23a, trans-3-(N^2-(N-3-Phenylpropanoylvalylalanyl)-N^1-carboxylmethylhydrazinocarbonyl)-2-(2-phenylethyl)oxirane]",k2 caspase-1,caspase-1,300 ± 144 M⁻¹ s⁻¹
"CC(NC(=O)[C@H]1O[C@@H]1C(=O)N(CC(=O)O)NC(=O)[C@H](C)NC(=O)[C@@H](NC(=O)CCc1ccccc1)C(C)C)C(=O)NCc1ccccc1 (stereo partly drawn) [23j (S,S), (2S,3S)-2-(1-Benzylcarbamoylethylcarbamoyl)-3-(N^2-(3-phenylpropanoylvalylalanyl)-N^1-carboxymethylhydrazinocarbonyl)oxirane]",k2 caspase-1,caspase-1,13400 M⁻¹ s⁻¹
same,k2 caspase-3,caspase-3,260 ± 25 M⁻¹ s⁻¹
"CCOC(=O)[C@@H]1O[C@H]1C(=O)N(CC(=O)O)NC(=O)[C@H](C)NC(=O)[C@@H](NC(=O)CCc1ccccc1)C(C)C [23c (R,R)]",k2 caspase-1,caspase-1,6290 ± 1524 M⁻¹ s⁻¹
"CC(C)[C@H](NC(=O)CCc1ccccc1)C(=O)N[C@@H](C)C(=O)NN(CC(=O)O)C(=O)[C@@H]1O[C@H]1C(=O)NCC(O)c1ccccc1 (stereo partly drawn) [23i (R,R), (2R,3R)-2-(2-Hydroxy-2-phenylethylcarbamoyl)-3-(N^2-(3-phenylpropanoylvalylalanyl)-N^1-carboxymethylhydrazinocarbonyl)oxirane]",k2 caspase-1,caspase-1,400 ± 19 M⁻¹ s⁻¹
"CC(NC(=O)C(NC(=O)CCc1ccccc1)C(C)C)C(=O)NN(CC(=O)O)C(=O)[C@@H]1O[C@H]1C(=O)NCc1ccccc1 (stereo partly drawn) [23g (R,R), (2R,3R)-2-(2-Benzylcarbamoyl)-3-(N^2-(3-phenylpropanoylvalylalanyl)-N^1-carboxymethylhydrazinocarbonyl)oxirane]",k2 caspase-1,caspase-1,1630 ± 522 M⁻¹ s⁻¹
"CC(NC(=O)[C@@H]1O[C@H]1C(=O)N(CC(=O)O)NC(=O)[C@H](C)NC(=O)[C@@H](NC(=O)CCc1ccccc1)C(C)C)C(=O)NCc1ccccc1 (stereo partly drawn) [23j (R,R), (2R,3R)-2-(1-Benzylcarbamoylethylcarbamoyl)-3-(N^2-(3-phenylpropanoylvalylalanyl)-N^1-carboxymethylhydrazinocarbonyl)oxirane]",k2 caspase-1,caspase-1,268 ± 75 M⁻¹ s⁻¹
"CC(C)[C@H](NC(=O)CCc1ccccc1)C(=O)N[C@@H](C)C(=O)NN(CC(=O)O)C(=O)[C@@H]1O[C@H]1C(=O)NCCc1ccccc1 [23h (R,R), (2R,3R)-2-(2-Phenethylcarbamoyl)-3-(N^2-(3-phenylpropanoylvalylalanyl)-N^1-carboxymethylhydrazinocarbonyl)oxirane]",k2 caspase-1,caspase-1,950 ± 51 M⁻¹ s⁻¹
